Source: patent US20260198495A1, “BINARY INSECTICIDE COMPOSITION AND USE THEREOF” (SHENYANG SINOCHEM AGROCHEMICALS R & D CO., LTD., priority 2022, published 2026)
Converted amounts (≈) assume the structure as drawn.

Key:
Assay type in all cases: in vivo
[1] = system: adult Phyllotreta vittuta Fabr.; experiment: Joint toxicity of I-72 + acetamiprid, Example 65, Table 65; settings: 72 h
Procedure: (§1) Test target: adult Phyllotreta vittuta Fabr.
(§2) Preparation of the pesticide solution: according to different test requirements, the test samples were accurately weighed respectively with an electronic analytical balance. The technical pesticides were dissolved in acetone, and then diluted with 0.1% Tween 80 water into a series of pesticide solutions with a certain concentration gradient according to the experimental design dosage.
(§3) Experimental method: first, uniform and consistent potted cabbage seedlings were selected. Then, uniform spraying was performed with the pesticide solution in the order from low dosage to high dosage according to the experimental design. After air-drying in the shade, adult flea beetles were transferred onto the treated cabbage seedlings, and then glass covers were put on them, with about 30-40 adult flea beetles on each seedling and 3 replicates for each treatment. In addition, a blank control was set up.
(§4) The treated test materials were placed in an observation room, and the temperature, humidity and illumination of the observation room could be adjusted as needed. The number of dead and live insects was investigated 72 hours later.

[2] = system: Nilaparvata lugens (Stal) nymphs; experiment: Joint toxicity of I-72 + buprofezin, Example 52, Table 52; settings: 72 h
Procedure: (§5) Test target: Nilaparvata lugens (Stal) nymphs, a sensitive strain reared indoors.
as §2
(§6) Experimental method: the activity of the mixture against the Nilaparvata lugens (Stal) nymphs was determined by adopting the potted-seedling spraying method. First, rice seedlings were planted in culture pots. Uniform spraying was performed with the pesticide solution in the order from low dosage to high dosage according to the experimental design, with 2 mL for each seedling. Then, Nilaparvata lugens nymphs of uniform size were transferred onto the rice seedlings, with 3 replicates for each treatment. In addition, a blank control was set up.
as §4, with “later. […] Then, the co-toxicity coefficient of each ratio was calculated using the Sun Y-P method to evaluate the mixing effect, as in Example 1.” for “later.”

[3] = system: 3rd-instar larvae of Chilo suppressalis (Walker); experiment: Joint toxicity of I-72 + chlorantraniliprole, Example 57, Table 57; settings: in Oryza sativa, 72 h
Procedure: (§7) Test target: 3rd-instar larvae of Chilo suppressalis (Walker).
as §2
(§8) Experimental method: first, tender rice stems were selected and dipped in the prepared pesticide solution for 10 s in the order from low dosage to high dosage according to the experimental design. After natural air-drying in the shade, they were placed in a 9-cm-diameter Petri dish with filter paper, and uniform and healthy test insects were introduced, with 10 insects for each treatment and 3 replicates for each treatment. In addition, a blank control (CK) was set up.
as §4, with “later. […] Then, the co-toxicity coefficient of each ratio was calculated using the Sun Y-P method to evaluate the mixing effect, as in Example 1.” for “later.”

[4] = system: Myzus persicae (Sulzer) nymphs; experiment: whole plant or invertebrate; settings: in Brassica oleracea, 48 h
Procedure: (§9) Test target: Myzus persicae (Sulzer) nymphs, a sensitive strain reared indoors.
as §2
(§10) Experimental method: first, cabbage leaves with uniform and consistent Myzus persicae (Sulzer) were selected, with about 30-40 insects on each leaf. Then, they were evenly sprayed with the pesticide solution in the order from low dosage to high dosage according to the experimental design, with 1.5 mL of the solution for each leaf and 3 replicates for each treatment. In addition, a blank control was set up.
(§11) The treated test materials were placed in an observation room, and the temperature, humidity and illumination of the observation room could be adjusted as needed. The number of dead and live insects was investigated 48 hours later.

[5] = system: Myzus persicae (Sulzer) nymphs; experiment: Joint toxicity of I-72 + cyantraniliprole, Example 59, Table 59; settings: in Brassica oleracea, 48 h
Procedure: as §9, §2, §10
as §11, with “later. […] Then, the co-toxicity coefficient of each ratio was calculated using the Sun Y-P method to evaluate the mixing effect (the same as in Example 1).” for “later.”

[6] = system: adult Phyllotreta vittuta Fabr.; experiment: Joint toxicity of I-72 + cyantraniliprole, Example 63, Table 63; settings: 72 h
Procedure: as §1, §2, §3
as §4, with “later. […] Then, the co-toxicity coefficient of each ratio was calculated using the Sun Y-P method to evaluate the mixing effect (the same as in Example 1).” for “later.”

[7] = system: Liriomyza sativae Blanchard larvae; experiment: Joint toxicity of I-72 + cyromazine, Example 55, Table 55; settings: in Phaseolus vulgaris
Procedure: Test target: Liriomyza sativae Blanchard larvae.
as §2
Experimental method: first, kidney bean seedlings with the Liriomyza sativae Blanchard larvae (the larvae had just invaded and formed mines) were selected. Spraying treatments were performed in the order from low dosage to high dosage according to the experimental design, with 3 replicates for each treatment. In addition, a blank control was set up.
(§12) The treated test materials were placed in an observation room, and the temperature, humidity and illumination of the observation room could be adjusted as needed. After the larvae in the blank control group pupated, the numbers of dead and live insects were then counted. […] Then, the co-toxicity coefficient of each ratio was calculated using the Sun Y-P method to evaluate the mixing effect (the same as in Example 1).

[8] = system: adult Phyllotreta vittuta Fabr.; experiment: Joint toxicity of I-72 + deltamethrin, Example 45, Table 45; settings: 72 h
Procedure: as §1, §2, §3
as §12, with “The number” for “After the larvae in the blank control group pupated, the numbers”, “was investigated 72 hours later.” for “were then counted.”

[9] = system: Frankliniella occidentalis nymphs; experiment: whole plant or invertebrate; settings: in Phaseolus vulgaris, foliar, 48 h
Procedure: Test target: Frankliniella occidentalis nymphs.
as §2
as §8, with “first, kidney bean leaves” for “first, tender rice stems”, “with 20-30” for “with 10”, “control” for “control (CK)”
as §12, with “The number” for “After the larvae in the blank control group pupated, the numbers”, “was investigated 48 hours later.” for “were then counted.”

[10] = system: Nilaparvata lugens (Stal) nymphs; experiment: Joint toxicity of I-72 + etofenprox, Example 44, Table 44; settings: in Oryza sativa, 72 h
Procedure: as §5, §2, §6
as §12, with “The number” for “After the larvae in the blank control group pupated, the numbers”, “was investigated 72 hours later.” for “were then counted.”

[11] = system: Myzus persicae (Sulzer) nymphs; experiment: Joint toxicity of I-72 + fenvalerate, Example 46, Table 46; settings: in Brassica oleracea, 48 h
Procedure: as §9, §2, §10
as §12, with “The number” for “After the larvae in the blank control group pupated, the numbers”, “was investigated 48 hours later.” for “were then counted.”

[12] = system: 3-instar larvae of Ostrinia furnacnlis Guenee; experiment: Joint toxicity of I-72 + flubendiamide, Example 61, Table 61; settings: in Zea mays, 72 h
Procedure: Test target: 3-instar larvae of Ostrinia furnacnlis Guenee.
as §2
as §8, with “corn” for “rice”, “control” for “control (CK)”
as §12, with “The number” for “After the larvae in the blank control group pupated, the numbers”, “was investigated 72 hours later.” for “were then counted.”

[13] = system: 2nd-instar larvae of Mythimna separata; experiment: Joint toxicity of I-72 + hexaflumuron, Example 56, Table 56; settings: in Zea mays, foliar, 72 h
Procedure: Test target: 2nd-instar larvae of Mythimna separata.
as §2
as §8, with “corn leaves” for “tender rice stems”, “control” for “control (CK)”
as §12, with “The number” for “After the larvae in the blank control group pupated, the numbers”, “was investigated 72 hours later.” for “were then counted.”

[14] = system: 2nd-instar larvae of Spodoptera exigua Hübner; experiment: Joint toxicity of I-72 + lufenuron, Example 54, Table 54; settings: in Brassica oleracea, foliar, 72 h
Procedure: (§13) Test target: 2nd-instar larvae of Spodoptera exigua Hübner.
as §2
as §8, with “cabbage leaves” for “tender rice stems”, “control” for “control (CK)”
as §12, with “The number” for “After the larvae in the blank control group pupated, the numbers”, “was investigated 72 hours later.” for “were then counted.”

[15] = system: 3rd-instar larvae of Chilo suppressalis (Walker); experiment: Joint toxicity of I-72 + methoxyfenozide, Example 53, Table 53; settings: in Oryza sativa, 72 h
Procedure: as §7, §2
as §8, with “control” for “control (CK)”
as §12, with “The number” for “After the larvae in the blank control group pupated, the numbers”, “was investigated 72 hours later.” for “were then counted.”

[16] = system: Aphis gossypii Glover nymphs; experiment: Joint toxicity of I-72 + nitenpyram, Example 67, Table 67; settings: 48 h
Procedure: Test target: Aphis gossypii Glover nymphs, a sensitive strain reared indoors.
as §2
as §10, with “cotton” for “cabbage”, “Aphis gossypii” for “Myzus persicae (Sulzer)”, “mL” for “mL of the solution”
as §12, with “The number” for “After the larvae in the blank control group pupated, the numbers”, “was investigated 48 hours later.” for “were then counted.”

Aphis craccivora nymphs = experiment: whole plant or invertebrate; settings: in Vicia faba, 48 h
Procedure: Test target: Aphis craccivora nymphs, a sensitive strain reared indoors.
as §2
as §10, with “broad bean seedlings” for “cabbage leaves”, “Aphis craccivora” for “Myzus persicae (Sulzer)”, “seedling.” for “leaf.”
as §11

[17] = system: 2nd-instar larvae of Spodoptera exigua Hübner; experiment: whole plant or invertebrate; settings: A = compound I-72, B = tetrachlorantraniliprole; cabbage leaf dipping; 72 hours
Procedure: as §13, §2
as §8, with “cabbage leaves” for “tender rice stems”, “control” for “control (CK)”
as §4

[18] = system: 2nd-instar larvae of Plutella xylostella; experiment: Joint toxicity of I-72 + tetraniliprole, Example 58, Table 58; settings: A = compound I-72, B = tetraniliprole; cabbage leaf dipping; 72 hours
Procedure: Test target: 2nd-instar larvae of Plutella xylostella.
as §2
as §8, with “cabbage leaves” for “tender rice stems”, “control” for “control (CK)”
as §12, with “The number” for “After the larvae in the blank control group pupated, the numbers”, “was investigated 72 hours later.” for “were then counted.”

[19] = system: 3rd-instar larvae of Yponomeuta evonymallus (Linnaeus); experiment: Joint toxicity of I-72 + thiamethoxam, Example 66, Table 66; settings: A = compound I-72, B = thiamethoxam; leaf dipping; 72 hours
Procedure: Test target: 3rd-instar larvae of Yponomeuta evonymallus (Linnaeus).
as §2
as §8, with “Hylotelephium spectabile leaves” for “tender rice stems”, “control” for “control (CK)”
as §4

[20] = system: Thrips flavus Schrank nymphs; experiment: Joint toxicity of I-72 + tolfenpyrad, Example 62, Table 62; settings: in Solanum melongena, 48 h
Procedure: Test target: Thrips flavus Schrank nymphs.
as §2
Experimental method: first, eggplant seedlings with Thrips flavus Schrank were selected, and the base number was counted. Then, uniform spraying was performed with the pesticide solution in the order from low to high doses according to the experimental design, with 2 mL for each seedling and 3 replicates for each treatment. In addition, a blank control was set up.
as §12, with “The number” for “After the larvae in the blank control group pupated, the numbers”, “was investigated 48 hours later.” for “were then counted.”

[21] = system: Lipaphis erysimi (Kaltenbach); experiment: Joint toxicity of I-72 + pyrethrin, Example 47, Table 47; settings: A = compound I-72, B = pyrethrin; cabbage leaf spraying; 48 hours
Procedure: Test target: Lipaphis erysimi (Kaltenbach).
as §2
as §10, with “Lipaphis erysimi (Kaltenbach)” for “Myzus persicae (Sulzer)”
as §12, with “The number” for “After the larvae in the blank control group pupated, the numbers”, “was investigated 48 hours later.” for “were then counted.”

Compound: C/C(=N\C#N)N(C)Cc1ccc(Cl)nc1 [acetamiprid]
- LC50 [1]: 7.92 µg/mL

Compound: CC(C)N1C(=O)N(c2ccccc2)CS/C1=N\C(C)(C)C [buprofezin]
- LC50 [2]: 1.98 µg/mL

Compound: CNC(=O)c1cc(Cl)cc(C)c1NC(=O)c1cc(Br)nn1-c1ncccc1Cl [chlorantraniliprole]
- LC50 [3]: 1.2 µg/mL

Compound: CN/C(=N\[N+](=O)[O-])NCc1cnc(Cl)s1 [clothianidin]
- LC50 [4]: 0.513 µg/mL (≈ 2.05 µM)

Compound: CNC(=O)c1cc(C#N)cc(C)c1NC(=O)c1cc(Br)nn1-c1ncccc1Cl [cyantraniliprole]
- LC50 [5]: 1.18 µg/mL
- LC50 [6]: 36.2 µg/mL

Compound: Nc1nc(N)nc(NC2CC2)n1 [cyromazine]
- LC50 [7]: 5.06 µg/mL

Compound: CC1(C)[C@H](C(=O)O[C@H](C#N)c2cccc(Oc3ccccc3)c2)[C@@H]1C=C(Br)Br [deltamethrin]
- LC50 [8]: 6.76 µg/mL

Compound: CN/C(=N/CC1CCOC1)N[N+](=O)[O-] (stereo not shown) [dinotefuran]
- LC50 [9]: 75.3 µg/mL (≈ 372 µM)

Compound: CCOc1ccc(C(C)(C)COCc2cccc(Oc3ccccc3)c2)cc1 [etofenprox]
- LC50 [10]: 25.4 µg/mL

Compound: CC(C)C(C(=O)OC(C#N)c1cccc(Oc2ccccc2)c1)c1ccc(Cl)cc1 (stereo not shown) [fenvalerate]
- LC50 [11]: 34.4 µg/mL

Compound: Cc1cc(C(F)(C(F)(F)F)C(F)(F)F)ccc1NC(=O)c1cccc(I)c1C(=O)NC(C)(C)CS(C)(=O)=O [flubendiamide]
- LC50 [12]: 1.02 µg/mL

Compound: O=C(NC(=O)c1c(F)cccc1F)Nc1cc(Cl)c(OC(F)(F)C(F)F)c(Cl)c1 [hexaflumuron]
- LC50 [13]: 5.57 µg/mL

Compound: O=C(NC(=O)c1c(F)cccc1F)Nc1cc(Cl)c(OC(F)(F)C(F)C(F)(F)F)cc1Cl (stereo not shown) [lufenuron]
- LC50 [14]: 12.9 µg/mL

Compound: COc1cccc(C(=O)NN(C(=O)c2cc(C)cc(C)c2)C(C)(C)C)c1C [methoxyfenozide]
- LC50 [15]: 8.95 µg/mL

Compound: CCN(Cc1ccc(Cl)nc1)/C(=C/[N+](=O)[O-])NC [nitenpyram]
- LC50 [16]: 0.384 µg/mL

Compound: CC(c1ccc(C(F)(F)F)nc1)S(C)(=O)=NC#N (stereo not shown) [sulfoxaflor]
- LC50 (Aphis craccivora nymphs): 0.197 µg/mL (≈ 0.709 µM)

Compound: CNC(=O)c1cc(Cl)cc(Cl)c1NC(=O)c1cc(Br)nn1-c1ncc(Cl)cc1Cl [tetrachlorantraniliprole]
- LC50 [17]: 0.6491 µg/mL (≈ 1.21 µM)

Compound: CNC(=O)c1cc(C#N)cc(C)c1NC(=O)c1cc(Cn2nnc(C(F)(F)F)n2)nn1-c1ncccc1Cl [tetraniliprole]
- LC50 [18]: 0.0810 µg/mL

Compound: CN1COCN(Cc2cnc(Cl)s2)/C1=N\[N+](=O)[O-] [thiamethoxam]
- LC50 [19]: 358.9351 µg/mL

Compound: CCc1nn(C)c(C(=O)NCc2ccc(Oc3ccc(C)cc3)cc2)c1Cl [tolfenpyrad]
- LC50 [20]: 28.6 µg/mL

Compound: pyrethrin
- LC50 [21]: 55.3268 µg/mL
